Laboratory results published in doi:10.1101/2025.10.26.684696v1 (bioRxiv, 2025).
Residues, ends and D or L forms follow the SMILES beside them.

Experiments:
[1] = reference compound; cited from earlier work
[2] = reference compound; cited from earlier work; remark: listed apart in the source
[3] = Stability in simulated gastric fluid; type: in vitro ADME; details: pH 1.6
[4] = Stability in simulated intestinal fluid; type: in vitro ADME; details: pH 6.5
[5] = Stability in human plasma; type: in vitro ADME
[6] = LogD7.4 by miniaturized shake-flask procedure; type: physicochemical; details: miniaturized shake-flask procedure at pH 7.4
[7] = Caco-2 cell permeability; type: in vitro ADME
[8] = Stability in rat liver microsomes; type: in vitro ADME

CC(C)[N+](C)(CCOC(=O)C1c2ccccc2Oc2ccccc21)C(C)C [propantheline]
Human plasma stability (t1/2) [1]: 2.6 min

CC[C@H]1OC(=O)[C@H](C)[C@@H](O[C@H]2C[C@@](C)(OC)[C@@H](O)[C@H](C)O2)[C@H](C)[C@@H](O[C@@H]2O[C@H](C)C[C@H](N(C)C)[C@H]2O)[C@](C)(O)C[C@@H](C)C(=O)[C@H](C)[C@@H](O)[C@]1(C)O [erythromycin]
Stability in intestinal simulated fluids (t1/2) [2]: 453 min

N=C(N)NCCC[C@@H]1NC(=O)CNC(=O)CNC(=O)[C@H](Cc2c[nH]cn2)NC(=O)CNC(=O)CNC(=O)[C@H](Cc2c[nH]c3ccccc23)NC(=O)[C@H](Cc2c[nH]c3ccccc23)NC(=O)CNC(=O)[C@H](CCCCN)NC(=O)CNC(=O)[C@H](CO)NC(=O)CNC(=O)CNC(=O)[C@H](Cc2c[nH]c3ccccc23)NC1=O [SP4] (cyclo(GGHGGRWGGSGKGWW))
half-life [3]: 108 min
half-life [4]: 456 min
remaining at 1 h [5]: 89.4%
LogD7.4 [6]: 0.86
Papp A→B [7]: 1.78 ×10⁻⁶ cm/s
Papp B→A [7]: 2.15 ×10⁻⁶ cm/s
efflux ratio [7]: ~1.2
half-life [8]: 282 min
